Measured values published in ChEMBL document CHEMBL5291721, “A preclinical secondary pharmacology resource illuminates target-adverse drug reaction associations of marketed drugs” (Nat Commun, 2023).

Key:
[1] = molecular target: T1, 5-hydroxytryptamine receptor 1A (Homo sapiens, UniProt P08908); type: functional, cell-based
T1 sequence (P08908 whole entry): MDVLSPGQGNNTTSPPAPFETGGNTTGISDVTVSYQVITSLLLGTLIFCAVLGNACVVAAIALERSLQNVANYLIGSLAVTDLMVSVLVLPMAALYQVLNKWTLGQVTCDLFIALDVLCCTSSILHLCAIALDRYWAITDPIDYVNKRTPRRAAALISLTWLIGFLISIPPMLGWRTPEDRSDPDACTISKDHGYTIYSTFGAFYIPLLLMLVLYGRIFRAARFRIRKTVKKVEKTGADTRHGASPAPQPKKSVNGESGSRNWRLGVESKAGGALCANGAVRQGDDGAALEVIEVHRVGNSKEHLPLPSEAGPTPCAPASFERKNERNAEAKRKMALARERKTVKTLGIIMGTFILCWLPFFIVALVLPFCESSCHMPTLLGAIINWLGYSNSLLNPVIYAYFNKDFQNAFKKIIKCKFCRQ

[2] = molecular target: T2, Cannabinoid receptor 1 (Homo sapiens, UniProt P21554); type: functional, cell-based
T2 sequence (P21554 whole entry): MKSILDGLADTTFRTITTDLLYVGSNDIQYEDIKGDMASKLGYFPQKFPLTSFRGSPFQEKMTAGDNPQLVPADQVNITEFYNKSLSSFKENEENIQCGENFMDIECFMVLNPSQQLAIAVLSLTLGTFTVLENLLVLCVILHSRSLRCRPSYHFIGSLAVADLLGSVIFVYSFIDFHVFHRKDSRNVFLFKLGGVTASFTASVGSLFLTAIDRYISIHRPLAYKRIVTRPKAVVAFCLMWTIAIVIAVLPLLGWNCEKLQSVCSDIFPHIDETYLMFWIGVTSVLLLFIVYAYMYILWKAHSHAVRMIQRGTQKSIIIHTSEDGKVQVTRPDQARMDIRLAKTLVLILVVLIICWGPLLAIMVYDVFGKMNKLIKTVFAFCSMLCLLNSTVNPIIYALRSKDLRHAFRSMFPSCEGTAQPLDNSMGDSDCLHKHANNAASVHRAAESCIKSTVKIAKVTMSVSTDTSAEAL

[3] = molecular target: T3, Alpha-2C adrenergic receptor (Homo sapiens, UniProt P18825); type: functional
T3 sequence (P18825 whole entry): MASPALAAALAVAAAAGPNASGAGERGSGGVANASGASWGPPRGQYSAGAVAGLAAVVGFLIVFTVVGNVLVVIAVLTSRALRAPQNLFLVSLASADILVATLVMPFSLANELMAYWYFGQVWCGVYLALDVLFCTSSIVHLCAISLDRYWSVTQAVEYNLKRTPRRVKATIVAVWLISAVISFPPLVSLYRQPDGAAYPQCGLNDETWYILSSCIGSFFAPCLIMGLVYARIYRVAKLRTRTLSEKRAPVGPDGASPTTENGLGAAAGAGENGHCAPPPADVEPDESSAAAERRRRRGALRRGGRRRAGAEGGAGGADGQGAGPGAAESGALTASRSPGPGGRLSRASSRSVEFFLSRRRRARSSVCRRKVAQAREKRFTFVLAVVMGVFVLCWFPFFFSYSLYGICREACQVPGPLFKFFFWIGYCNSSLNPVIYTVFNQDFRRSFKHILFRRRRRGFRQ

[4] = molecular target: D(3) dopamine receptor (Homo sapiens, UniProt P35462)
D(3) dopamine receptor, sequence (P35462 whole entry): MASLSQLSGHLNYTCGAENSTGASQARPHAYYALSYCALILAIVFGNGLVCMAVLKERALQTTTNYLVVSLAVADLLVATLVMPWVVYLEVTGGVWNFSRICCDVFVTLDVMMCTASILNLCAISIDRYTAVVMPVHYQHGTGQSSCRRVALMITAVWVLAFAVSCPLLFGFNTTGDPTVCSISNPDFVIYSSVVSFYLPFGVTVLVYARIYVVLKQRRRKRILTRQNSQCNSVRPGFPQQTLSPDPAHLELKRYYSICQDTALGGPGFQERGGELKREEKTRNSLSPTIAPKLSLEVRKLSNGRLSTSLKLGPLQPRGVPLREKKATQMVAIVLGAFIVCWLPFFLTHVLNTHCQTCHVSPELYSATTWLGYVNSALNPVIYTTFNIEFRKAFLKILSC

[5] = molecular target: T4, Equilibrative nucleoside transporter 1 (Homo sapiens, UniProt Q99808)
T4 sequence (Q99808 whole entry): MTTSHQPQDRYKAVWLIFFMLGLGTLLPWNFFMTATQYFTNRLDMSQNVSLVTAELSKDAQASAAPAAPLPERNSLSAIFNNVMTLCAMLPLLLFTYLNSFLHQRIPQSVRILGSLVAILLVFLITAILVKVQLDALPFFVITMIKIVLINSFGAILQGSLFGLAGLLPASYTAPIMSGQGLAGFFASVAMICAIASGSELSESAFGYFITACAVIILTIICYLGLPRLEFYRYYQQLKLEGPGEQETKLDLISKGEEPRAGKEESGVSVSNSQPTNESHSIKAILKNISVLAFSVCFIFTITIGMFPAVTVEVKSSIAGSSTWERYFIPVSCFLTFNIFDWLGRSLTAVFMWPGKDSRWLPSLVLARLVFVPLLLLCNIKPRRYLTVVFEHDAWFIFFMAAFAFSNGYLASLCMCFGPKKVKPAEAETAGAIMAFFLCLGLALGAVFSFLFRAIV

[6] = molecular target: 5-hydroxytryptamine receptor 2A (Homo sapiens, UniProt P28223); type: functional, cell-based
5-hydroxytryptamine receptor 2A, sequence (P28223 whole entry): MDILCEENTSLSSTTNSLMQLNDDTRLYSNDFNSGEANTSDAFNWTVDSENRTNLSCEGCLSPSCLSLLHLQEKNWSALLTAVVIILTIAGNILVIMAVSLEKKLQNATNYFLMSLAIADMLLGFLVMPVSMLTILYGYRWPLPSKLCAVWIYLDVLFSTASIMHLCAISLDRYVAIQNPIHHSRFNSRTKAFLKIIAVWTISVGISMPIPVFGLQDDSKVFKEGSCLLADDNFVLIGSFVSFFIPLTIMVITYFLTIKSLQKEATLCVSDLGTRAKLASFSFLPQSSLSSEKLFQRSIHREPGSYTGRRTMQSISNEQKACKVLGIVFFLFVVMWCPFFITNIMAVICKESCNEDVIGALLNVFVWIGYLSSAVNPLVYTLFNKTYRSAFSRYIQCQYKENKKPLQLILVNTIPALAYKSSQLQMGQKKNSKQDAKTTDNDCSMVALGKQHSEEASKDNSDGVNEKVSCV

[7] = molecular target: Histamine H3 receptor (Homo sapiens, UniProt Q9Y5N1)
Histamine H3 receptor, sequence (Q9Y5N1 whole entry): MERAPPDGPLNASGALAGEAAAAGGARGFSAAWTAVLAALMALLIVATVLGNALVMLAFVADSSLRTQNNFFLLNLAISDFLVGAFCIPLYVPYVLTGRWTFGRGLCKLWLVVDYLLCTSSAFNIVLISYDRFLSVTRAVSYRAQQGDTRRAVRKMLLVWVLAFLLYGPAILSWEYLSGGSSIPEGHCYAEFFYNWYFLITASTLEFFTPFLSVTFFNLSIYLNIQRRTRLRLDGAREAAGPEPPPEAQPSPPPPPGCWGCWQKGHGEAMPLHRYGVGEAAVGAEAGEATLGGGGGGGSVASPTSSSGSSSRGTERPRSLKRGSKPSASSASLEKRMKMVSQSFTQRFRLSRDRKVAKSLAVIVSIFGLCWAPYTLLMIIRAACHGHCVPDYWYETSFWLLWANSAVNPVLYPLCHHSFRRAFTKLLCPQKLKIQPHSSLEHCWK

[8] = molecular target: T2, Cannabinoid receptor 1; type: functional, cell-based; remark: listed apart in the source
[9] = molecular target: Vasopressin V1a receptor (Homo sapiens, UniProt P37288)
Vasopressin V1a receptor, sequence (P37288 whole entry): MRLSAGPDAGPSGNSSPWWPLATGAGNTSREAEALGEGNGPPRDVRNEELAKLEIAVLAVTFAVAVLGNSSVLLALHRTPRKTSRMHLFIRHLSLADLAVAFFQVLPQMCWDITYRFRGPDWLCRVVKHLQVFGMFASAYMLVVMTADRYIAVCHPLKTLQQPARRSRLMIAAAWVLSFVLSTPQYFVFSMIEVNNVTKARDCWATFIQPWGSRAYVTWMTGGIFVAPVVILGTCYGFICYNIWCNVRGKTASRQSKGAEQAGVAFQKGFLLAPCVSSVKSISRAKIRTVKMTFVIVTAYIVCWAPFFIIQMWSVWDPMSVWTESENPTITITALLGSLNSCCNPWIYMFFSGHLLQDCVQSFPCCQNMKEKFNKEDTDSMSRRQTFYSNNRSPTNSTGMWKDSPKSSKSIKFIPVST

[10] = molecular target: 3',5'-cyclic-AMP phosphodiesterase 4A (Homo sapiens, UniProt P27815); type: functional
3',5'-cyclic-AMP phosphodiesterase 4A, sequence (P27815 whole entry): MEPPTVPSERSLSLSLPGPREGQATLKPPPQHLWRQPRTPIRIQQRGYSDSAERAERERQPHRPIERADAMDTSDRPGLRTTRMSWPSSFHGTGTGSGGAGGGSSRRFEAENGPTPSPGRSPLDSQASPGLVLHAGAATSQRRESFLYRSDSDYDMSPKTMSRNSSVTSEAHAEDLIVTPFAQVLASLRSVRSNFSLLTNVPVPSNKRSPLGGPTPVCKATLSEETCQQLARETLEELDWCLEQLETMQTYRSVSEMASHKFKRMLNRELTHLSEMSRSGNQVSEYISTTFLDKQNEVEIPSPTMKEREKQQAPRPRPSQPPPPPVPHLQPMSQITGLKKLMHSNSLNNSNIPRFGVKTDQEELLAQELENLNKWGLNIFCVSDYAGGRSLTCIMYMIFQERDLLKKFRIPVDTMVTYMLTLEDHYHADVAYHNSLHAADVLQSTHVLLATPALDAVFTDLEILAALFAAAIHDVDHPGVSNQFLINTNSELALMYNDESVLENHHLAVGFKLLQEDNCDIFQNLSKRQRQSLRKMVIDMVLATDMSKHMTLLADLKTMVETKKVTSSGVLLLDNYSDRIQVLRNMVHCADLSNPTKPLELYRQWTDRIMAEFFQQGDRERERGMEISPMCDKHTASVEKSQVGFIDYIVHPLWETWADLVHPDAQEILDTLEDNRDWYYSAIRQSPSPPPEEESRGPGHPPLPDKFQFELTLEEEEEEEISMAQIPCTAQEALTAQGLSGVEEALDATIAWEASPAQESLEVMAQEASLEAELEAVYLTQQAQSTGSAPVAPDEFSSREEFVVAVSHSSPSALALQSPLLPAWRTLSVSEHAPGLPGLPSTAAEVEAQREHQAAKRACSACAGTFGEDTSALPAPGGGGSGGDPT

[11] = molecular target: Acetylcholinesterase (Homo sapiens, UniProt P22303); type: functional
Acetylcholinesterase, sequence (P22303 whole entry): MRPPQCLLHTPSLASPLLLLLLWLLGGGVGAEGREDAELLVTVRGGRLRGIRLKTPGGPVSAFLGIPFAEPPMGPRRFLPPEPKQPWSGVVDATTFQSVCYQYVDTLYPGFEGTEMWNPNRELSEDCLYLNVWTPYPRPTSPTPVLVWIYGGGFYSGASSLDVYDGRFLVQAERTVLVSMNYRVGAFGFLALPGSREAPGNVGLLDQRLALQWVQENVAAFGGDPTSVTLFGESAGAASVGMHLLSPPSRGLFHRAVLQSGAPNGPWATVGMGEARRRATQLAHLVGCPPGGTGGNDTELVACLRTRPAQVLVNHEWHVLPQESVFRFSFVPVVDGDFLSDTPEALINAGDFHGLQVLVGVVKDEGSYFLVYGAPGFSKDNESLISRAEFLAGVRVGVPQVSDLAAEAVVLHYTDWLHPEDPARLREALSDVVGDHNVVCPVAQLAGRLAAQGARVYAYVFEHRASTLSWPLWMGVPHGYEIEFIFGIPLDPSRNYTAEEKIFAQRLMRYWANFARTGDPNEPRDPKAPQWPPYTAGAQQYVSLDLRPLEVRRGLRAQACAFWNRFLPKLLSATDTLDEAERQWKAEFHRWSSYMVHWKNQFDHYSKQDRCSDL

[12] = molecular target: T5, Glucocorticoid receptor (Homo sapiens, UniProt P04150)
T5 sequence (P04150 whole entry): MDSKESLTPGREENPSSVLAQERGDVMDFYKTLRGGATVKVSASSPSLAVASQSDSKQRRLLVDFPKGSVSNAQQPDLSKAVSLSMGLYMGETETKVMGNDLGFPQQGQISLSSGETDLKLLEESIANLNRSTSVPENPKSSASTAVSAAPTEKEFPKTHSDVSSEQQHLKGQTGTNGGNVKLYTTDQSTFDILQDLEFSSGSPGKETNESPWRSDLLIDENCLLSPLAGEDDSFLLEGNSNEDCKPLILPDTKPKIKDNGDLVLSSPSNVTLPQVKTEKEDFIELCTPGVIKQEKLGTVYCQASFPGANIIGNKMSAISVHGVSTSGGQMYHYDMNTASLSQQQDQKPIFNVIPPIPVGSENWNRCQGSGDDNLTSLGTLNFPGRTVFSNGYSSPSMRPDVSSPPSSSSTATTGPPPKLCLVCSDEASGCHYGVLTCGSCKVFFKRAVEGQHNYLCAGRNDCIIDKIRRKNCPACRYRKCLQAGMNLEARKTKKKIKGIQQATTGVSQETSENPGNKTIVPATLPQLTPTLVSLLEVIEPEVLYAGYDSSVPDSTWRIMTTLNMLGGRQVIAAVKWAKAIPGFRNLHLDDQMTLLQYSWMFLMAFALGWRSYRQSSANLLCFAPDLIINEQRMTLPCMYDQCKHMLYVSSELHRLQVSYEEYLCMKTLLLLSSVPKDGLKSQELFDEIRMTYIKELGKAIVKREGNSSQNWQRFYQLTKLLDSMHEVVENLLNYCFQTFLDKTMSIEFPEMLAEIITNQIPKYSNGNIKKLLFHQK

[13] = molecular target: Vasopressin V2 receptor (Homo sapiens, UniProt P30518)
Vasopressin V2 receptor, sequence (P30518 whole entry): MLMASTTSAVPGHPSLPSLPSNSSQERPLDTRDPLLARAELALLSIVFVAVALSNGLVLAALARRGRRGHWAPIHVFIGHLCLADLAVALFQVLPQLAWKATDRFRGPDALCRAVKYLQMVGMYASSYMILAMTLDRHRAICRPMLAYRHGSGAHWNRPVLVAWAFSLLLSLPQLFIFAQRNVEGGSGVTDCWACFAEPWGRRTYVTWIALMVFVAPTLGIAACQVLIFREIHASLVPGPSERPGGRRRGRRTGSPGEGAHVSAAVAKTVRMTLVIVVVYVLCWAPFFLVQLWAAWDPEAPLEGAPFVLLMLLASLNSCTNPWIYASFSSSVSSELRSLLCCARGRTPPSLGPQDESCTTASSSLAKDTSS
Note: assay procedure not described here.

AC50 [12] | AC50 [13] | Compound | AC50 [1] | AC50 [2] | AC50 [3] | AC50 [4] | AC50 [5] | AC50 [6] | AC50 [7] | AC50 [8] | AC50 [9] | AC50 [10] | AC50 [11]
– | – | CCOCC(O)COc1ccc(NC(=O)CC[S+](C)C)cc1 (stereo not drawn) | > 30 µM | > 30 µM | > 30 µM | > 30 µM | > 30 µM | > 30 µM | > 30 µM | > 30 µM | > 30 µM | – | –
– | – | O=C(O)[C@H]1/C(=C/CO)O[C@@H]2CC(=O)N21 [CLAVULANIC ACID] | > 30 µM | > 30 µM | > 30 µM | > 30 µM | > 30 µM | > 30 µM | > 30 µM | > 30 µM | > 30 µM | – | –
– | – | C[C@H](CCC(=O)O)[C@H]1CC[C@H]2[C@@H]3[C@H](O)C[C@@H]4C[C@H](O)CC[C@]4(C)[C@H]3CC[C@]12C [CHENODIOL] | > 30 µM | > 30 µM | > 30 µM | > 30 µM | > 30 µM | > 30 µM | > 30 µM | > 30 µM | > 30 µM | – | –
– | – | Nc1c2c(nc3ccccc13)CCCC2O (stereo not drawn) [VELNACRINE] | > 30 µM | > 30 µM | > 30 µM | > 30 µM | > 30 µM | > 30 µM | > 30 µM | > 30 µM | > 30 µM | – | –
– | – | C#CCN(C)Cc1ccccc1 [PARGYLINE] | – | > 30 µM | > 30 µM | – | – | > 30 µM | – | > 30 µM | – | > 30 µM | > 30 µM
> 30 µM | > 30 µM | N[C@@H](Cc1cc(I)c(Oc2cc(I)c(O)c(I)c2)c(I)c1)C(=O)O [LEVOTHYROXINE] | > 30 µM | > 30 µM | > 30 µM | > 30 µM | > 30 µM | > 30 µM | > 30 µM | > 30 µM | > 30 µM | – | –
– | – | CO[C@@H]1[C@@H](OC(N)=O)[C@@H](O)[C@H](Oc2ccc3c(O)c(NC(=O)c4ccc(O)c(CC=C(C)C)c4)c(=O)oc3c2C)OC1(C)C [NOVOBIOCIN] | > 30 µM | > 30 µM | > 30 µM | > 30 µM | > 30 µM | > 30 µM | > 30 µM | > 30 µM | > 30 µM | – | –
– | – | COc1cc2c(cc1OC)C1CC(=O)C(CC(C)C)CN1CC2 (stereo not drawn) [TETRABENAZINE] | > 30 µM | > 30 µM | > 30 µM | > 30 µM | > 30 µM | > 30 µM | > 30 µM | > 30 µM | > 30 µM | – | –
– | – | CCC[C@@]1(CCc2ccccc2)CC(O)=C([C@H](CC)c2cccc(NS(=O)(=O)c3ccc(C(F)(F)F)cn3)c2)C(=O)O1 | > 30 µM | > 30 µM | 25 µM | > 30 µM | > 30 µM | 11 µM | > 30 µM | > 30 µM | > 30 µM | – | –
> 30 µM | > 30 µM | CN(C)CCOC(c1ccc(Cl)cc1)c1ccccn1 (stereo not drawn) [CARBINOXAMINE] | > 30 µM | > 30 µM | > 30 µM | > 30 µM | > 30 µM | > 30 µM | 3.5 µM | > 30 µM | > 30 µM | – | –
– | – | C[C@H](Nc1ncnc2[nH]cnc12)c1cc2cccc(Cl)c2c(=O)n1-c1ccccc1 [DUVELISIB] | > 30 µM | > 30 µM | > 30 µM | > 30 µM | > 30 µM | 18 µM | > 30 µM | > 30 µM | > 30 µM | > 30 µM | > 30 µM
– | > 30 µM | CN(C)CCc1c[nH]c2ccc(CS(=O)(=O)N3CCCC3)cc12 [ALMOTRIPTAN] | – | > 30 µM | > 30 µM | > 30 µM | > 30 µM | > 30 µM | > 30 µM | > 30 µM | > 30 µM | – | –
– | – | CC(C)(CO)c1cc2cc(NC(=O)C3(c4ccc5c(c4)OC(F)(F)O5)CC3)c(F)cc2n1C[C@@H](O)CO [TEZACAFTOR] | > 10 µM | > 30 µM | > 30 µM | > 30 µM | > 30 µM | 16 µM | > 30 µM | > 30 µM | > 30 µM | – | –
– | – | O=C(Cc1cccs1)N[C@@H]1C(=O)N2C(C(=O)[O-])=C(C[n+]3ccccc3)CS[C@H]12 [CEPHALORIDINE] | > 30 µM | > 30 µM | > 30 µM | > 30 µM | – | > 30 µM | – | > 30 µM | – | > 3 µM | > 30 µM
– | – | c1cnc2cc3c(cc2n1)[C@@H]1CNC[C@H]3C1 [VARENICLINE] | > 30 µM | > 30 µM | > 30 µM | > 30 µM | > 30 µM | > 30 µM | > 30 µM | > 30 µM | > 30 µM | – | –
– | – | CN1CC2c3ccccc3Oc3ccc(Cl)cc3C2C1 (stereo not drawn) [ASENAPINE] | 0.0097 µM | > 30 µM | 0.3 µM | 0.0044 µM | > 30 µM | 0.0002 µM | > 30 µM | > 30 µM | > 30 µM | – | –
– | – | Cn1cnc2c(F)c(Nc3ccc(Br)cc3F)c(C(=O)NOCCO)cc21 [BINIMETINIB] | > 30 µM | > 30 µM | > 30 µM | > 30 µM | > 30 µM | > 30 µM | > 30 µM | > 30 µM | > 30 µM | – | –
– | – | C[C@@H](O)[C@H]1C(=O)N2C(C(=O)O)=C(SCCN=CN)C[C@H]12 [IMIPENEM ANHYDROUS] | > 300 µM | > 300 µM | > 300 µM | > 300 µM | > 300 µM | > 300 µM | 180 µM | > 300 µM | > 300 µM | – | –

Compound | AC50 [12] | AC50 [13] | AC50 [1] | AC50 [2] | AC50 [3] | AC50 [4] | AC50 [5] | AC50 [6] | AC50 [7] | AC50 [8] | AC50 [9] | AC50 [10] | AC50 [11]
CC[N+](CC)(CCNC(=O)C(=O)NCC[N+](CC)(CC)Cc1ccccc1Cl)Cc1ccccc1Cl [AMBENONIUM] | – | > 30 µM | > 30 µM | > 30 µM | 2.5 µM | > 30 µM | – | > 30 µM | 21 µM | > 30 µM | > 30 µM | – | –
